In assay [1] the target is PKBβ (Homo sapiens, UniProt P31751). The assay is described as follows: Kinase profiling panel: PKBβ. The class given is biochemical. Particulars: read-out: % activity vs. DMSO, PKBβ. The method, then: (§1) To further probe the selectivity of the compounds 4 and 15, they were subjected for kinase profiling service for screening against a panel of other kinases selected based on the kinase tree at 5 μM concentration, at or above the IC50 for the two compounds versus PAK in both in vitro and cell-based assays. […] PAK1 was not available for testing using this system thus it was not possible to compare directly in this assay system.
Chain of PKBβ (P31751 whole entry, species assumed): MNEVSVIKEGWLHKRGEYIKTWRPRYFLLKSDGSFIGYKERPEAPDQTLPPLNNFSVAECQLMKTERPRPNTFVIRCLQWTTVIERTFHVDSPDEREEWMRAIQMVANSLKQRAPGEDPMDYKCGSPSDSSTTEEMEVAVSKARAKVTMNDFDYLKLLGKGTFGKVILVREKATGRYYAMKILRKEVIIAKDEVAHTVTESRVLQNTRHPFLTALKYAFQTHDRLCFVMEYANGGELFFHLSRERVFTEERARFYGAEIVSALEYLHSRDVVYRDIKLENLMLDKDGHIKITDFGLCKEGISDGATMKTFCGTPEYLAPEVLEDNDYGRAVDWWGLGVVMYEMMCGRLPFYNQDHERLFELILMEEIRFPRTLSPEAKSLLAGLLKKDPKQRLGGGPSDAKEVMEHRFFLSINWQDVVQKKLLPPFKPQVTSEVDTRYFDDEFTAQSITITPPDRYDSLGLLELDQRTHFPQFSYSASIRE

For assay [2], the target named is PAK4 (Homo sapiens, UniProt O96013). The assay is described as follows: Kinase profiling panel: PAK4. The class given is biochemical. Particulars: 5 μM compound; average of triplicate. The method, then:
as §1

Assay [3] concerns the target CDK5/p25 (Homo sapiens, UniProt Q00535). The assay is described as follows: Kinase profiling panel: CDK5/p25. The format is biochemical. Particulars: 5 μM compound; average of triplicate. As for the experimental part:
as §1

In assay [4] the target is PKA (Homo sapiens, UniProt P17612). As to the kind of experiment: Kinase profiling panel: PKA. The class given is biochemical. Particulars: 5 μM compound; average of triplicate. As for the experimental part: as §1
Assay [5] has as its system BCPAP cells. As to the kind of experiment: Boyden chamber migration assay, BCPAP. The format is cell-based, Human. Particulars: 2.5 μM and 5.0 μM, 12 hours, P<0.05 versus DMSO. As for the experimental part:
Cells were grown in media containing 10% FBS. After 24 hours, the medium was aspirated, and media containing 1% FBS was added for 24 hours. The cells were trypsinized for 2 to 5 minutes, washed, and resuspended in media containing 1% FBS. The cell concentration was calculated by hemocytometer. Four hundred μl 1% FBS medium was added into 24-well plates, and a Boyden chamber (8 μm pore) was inserted into each well. Cells were added to each insert, and were allowed to attach in an incubator at 37° C. at 5% CO2 for 2 hours. The cells were then exposed to various concentrations of drugs or control diluent for 3 hours. The inserts were switched to a new well containing media containing 10% FBS, and the chamber was incubated for 12 or 24 hours depending on the migration rate of the cell line. The cells on and under the Boyden chamber membrane were fixed with 3.7% formaldehyde containing 0.05% crystal violet for 15 min after washing cells with PBS. The chambers were washed with distilled water. […] The Q-tips containing the scraped cells and the Boyden chamber containing the non-migrated cells were separately incubated in 80% methanol, shaken at 500 g for 30 minutes, and the extracted dye was measured at 570 nm. Migration was quantified as the ratio of the migrated cells over the total cells (non-migrated plus […]). […]

For assay [6], the target named is JAK2 (Homo sapiens, UniProt O60674). The assay is described as follows: Kinase profiling panel: JAK2. The format is biochemical. Particulars: 5 μM compound; average of triplicate. As for the experimental part: as §1
Chain of JAK2 (O60674 whole entry, species assumed): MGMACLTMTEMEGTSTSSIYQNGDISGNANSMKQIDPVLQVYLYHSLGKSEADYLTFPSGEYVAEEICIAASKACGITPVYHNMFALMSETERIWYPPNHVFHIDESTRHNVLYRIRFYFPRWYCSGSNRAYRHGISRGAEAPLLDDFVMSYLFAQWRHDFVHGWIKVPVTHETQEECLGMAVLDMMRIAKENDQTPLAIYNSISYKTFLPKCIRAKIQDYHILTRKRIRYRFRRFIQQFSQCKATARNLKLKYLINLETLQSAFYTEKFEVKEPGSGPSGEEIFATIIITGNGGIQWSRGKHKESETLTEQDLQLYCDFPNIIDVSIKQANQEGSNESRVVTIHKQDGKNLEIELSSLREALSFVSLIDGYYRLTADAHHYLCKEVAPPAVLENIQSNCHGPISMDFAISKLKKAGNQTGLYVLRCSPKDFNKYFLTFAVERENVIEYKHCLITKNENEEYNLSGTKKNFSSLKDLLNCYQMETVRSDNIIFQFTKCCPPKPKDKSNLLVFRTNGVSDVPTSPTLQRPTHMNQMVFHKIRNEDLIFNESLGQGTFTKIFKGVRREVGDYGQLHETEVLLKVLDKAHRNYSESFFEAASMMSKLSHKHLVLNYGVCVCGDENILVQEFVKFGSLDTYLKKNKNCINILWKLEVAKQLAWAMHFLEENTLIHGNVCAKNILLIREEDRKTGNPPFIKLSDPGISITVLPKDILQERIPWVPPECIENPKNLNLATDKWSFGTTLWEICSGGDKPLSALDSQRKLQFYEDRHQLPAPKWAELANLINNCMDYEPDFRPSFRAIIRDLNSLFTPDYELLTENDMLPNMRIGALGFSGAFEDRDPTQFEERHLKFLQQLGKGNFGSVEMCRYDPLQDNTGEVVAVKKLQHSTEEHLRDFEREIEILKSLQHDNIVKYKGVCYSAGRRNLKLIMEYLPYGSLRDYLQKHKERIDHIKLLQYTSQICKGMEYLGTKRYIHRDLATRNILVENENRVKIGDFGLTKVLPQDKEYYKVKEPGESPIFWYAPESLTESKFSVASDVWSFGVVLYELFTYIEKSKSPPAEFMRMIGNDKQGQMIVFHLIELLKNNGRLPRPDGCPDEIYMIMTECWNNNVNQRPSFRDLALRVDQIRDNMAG
The target of assay [7] is T1, Recombinant active PAK 1 (Homo sapiens, UniProt Q13153).
T1 construct: purchased Calbiochem
T1 sequence (Q13153 whole entry): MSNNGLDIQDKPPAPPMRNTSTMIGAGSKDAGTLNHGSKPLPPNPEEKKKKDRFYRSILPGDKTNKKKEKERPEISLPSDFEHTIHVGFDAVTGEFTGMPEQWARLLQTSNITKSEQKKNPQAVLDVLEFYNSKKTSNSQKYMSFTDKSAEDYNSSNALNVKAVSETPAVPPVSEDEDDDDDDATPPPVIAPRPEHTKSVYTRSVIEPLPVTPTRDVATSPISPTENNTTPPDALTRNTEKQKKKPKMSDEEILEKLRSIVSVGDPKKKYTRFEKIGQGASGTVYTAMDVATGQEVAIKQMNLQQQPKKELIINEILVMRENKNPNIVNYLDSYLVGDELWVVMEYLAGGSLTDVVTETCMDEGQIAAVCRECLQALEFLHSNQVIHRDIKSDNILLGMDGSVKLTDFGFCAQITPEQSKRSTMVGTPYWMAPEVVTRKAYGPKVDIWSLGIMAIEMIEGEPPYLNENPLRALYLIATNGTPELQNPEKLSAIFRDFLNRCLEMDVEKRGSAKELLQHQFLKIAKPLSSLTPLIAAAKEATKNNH
As to the kind of experiment: In vitro PAK1 kinase assay (MBP substrate, 32P-ATP). Particulars: for Inhibition of PAK1 kinase activity in initial screen: 7.5 μM inhibitor, 2.5 μM ATP, myelin basic protein substrate (FIG. 2A); for ATP competition for PAK1: ATP 5-40 μM, Lineweaver-Burk analysis (FIG. 2C); for Relative PAK1 inhibitory potency (comparison in words) / IC50: in vitro kinase assay; for Relative PAK1 inhibitory potency (comparison in words): comparison between compounds / with OSU-03012; for IC50: read-out: IC50 versus PAK, in vitro (bound implied by chosen test concentration). The format is biochemical. As for the experimental part:
Recombinant active PAK 1 (Calbiochem) was incubated with selected derivatives or 0.1% DMSO in the presence or absence of MBP (Sigma) in a 1× kinase buffer (Cell Signaling). The addition of [γ-32P]-ATP (2.5 μCi/reaction) (Perkin Elmer) started the reaction, which was incubated at 30° C. for 30 minutes. The reaction was terminated by the addition of EDTA. Results were obtained after visualization of ^32P-labeled MBP after separation on 12% polyacrylamide gels and autoradiography. For the Lineweaver-Burk plot analysis, the ratio of radioactive ATP to nonradioactive ATP was not altered. The PAK1 kinase activities are the means of three independent experiments quantified using P81 phosphocellulose paper by a scintillation counter after three washes with 0.75% phosphoric acid.
Screening of OSU-03012 Derivatives to Identify PAK1 Inhibitors. The 17 derivatives along with OSU-03012, each at 7.5 μM, were screened for their ability to inhibit PAK1 activity by in vitro PAK1 kinase assay. The dose was chosen (above the IC50 of OSU-03012) to allow OSU-03012 to serve as a robust positive control. The PAK1 kinase assay was performed using recombinant active PAK1 with myelin basic protein as substrate in the presence of 2.5 μM ATP and 7.5 μM of respective inhibitors.
To further investigate these six compounds, dose-response studies on PAK1 activity were performed by using PAK1 kinase assay. […] We next questioned whether compounds 4 or 15 inhibited PAK1 in an ATP competitive manner as their parent compound OSU-03012.

Assay [8] has as its target PAK2 (Homo sapiens, UniProt Q13177). As to the kind of experiment: Kinase profiling panel: PAK2. The format is biochemical. Particulars: 5 μM compound; average of triplicate. The method, then:
as §1

The target in assay [9] is Src(T341M) (Homo sapiens, UniProt P12931, T341M). The assay is described as follows: Kinase profiling panel: Src(T341M). The format is biochemical. Particulars: 5 μM compound; average of triplicate. The method, then:
as §1

The target in assay [10] is CHK1 (Homo sapiens, UniProt O14757). The assay is described as follows: Kinase profiling panel: CHK1. The class given is biochemical. Particulars: 5 μM compound; average of triplicate. The method, then:
as §1

For assay [11], the target named is GSK3β (Homo sapiens, UniProt P49841). As to the kind of experiment: Kinase profiling panel: GSK3β. The format is biochemical. Particulars: 5 μM compound; average of triplicate. As for the experimental part: as §1
Chain of GSK3β (P49841 whole entry, species assumed): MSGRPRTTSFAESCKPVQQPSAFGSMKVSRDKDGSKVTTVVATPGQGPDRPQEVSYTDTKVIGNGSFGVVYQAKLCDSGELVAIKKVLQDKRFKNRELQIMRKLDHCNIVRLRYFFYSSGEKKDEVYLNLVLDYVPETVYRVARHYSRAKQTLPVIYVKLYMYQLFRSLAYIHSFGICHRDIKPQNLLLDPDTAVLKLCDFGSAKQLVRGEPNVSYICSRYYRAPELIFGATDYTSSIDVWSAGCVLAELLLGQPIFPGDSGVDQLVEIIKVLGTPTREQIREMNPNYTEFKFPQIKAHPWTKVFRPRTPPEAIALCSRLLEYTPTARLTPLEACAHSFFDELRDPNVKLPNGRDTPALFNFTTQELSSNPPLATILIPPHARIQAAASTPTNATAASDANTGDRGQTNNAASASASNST
The target of assay [12] is GSK3α (Homo sapiens, UniProt P49840). The assay is described as follows: Kinase profiling panel: GSK3α. Particulars: 5 μM compound; average of triplicate. The class given is biochemical. The method, then:
as §1

Entries after “also recorded” stand apart in the source; their conditions may differ. Where two headings read alike, the source gives them in different places.

Chain of PAK4 (O96013 whole entry, species assumed): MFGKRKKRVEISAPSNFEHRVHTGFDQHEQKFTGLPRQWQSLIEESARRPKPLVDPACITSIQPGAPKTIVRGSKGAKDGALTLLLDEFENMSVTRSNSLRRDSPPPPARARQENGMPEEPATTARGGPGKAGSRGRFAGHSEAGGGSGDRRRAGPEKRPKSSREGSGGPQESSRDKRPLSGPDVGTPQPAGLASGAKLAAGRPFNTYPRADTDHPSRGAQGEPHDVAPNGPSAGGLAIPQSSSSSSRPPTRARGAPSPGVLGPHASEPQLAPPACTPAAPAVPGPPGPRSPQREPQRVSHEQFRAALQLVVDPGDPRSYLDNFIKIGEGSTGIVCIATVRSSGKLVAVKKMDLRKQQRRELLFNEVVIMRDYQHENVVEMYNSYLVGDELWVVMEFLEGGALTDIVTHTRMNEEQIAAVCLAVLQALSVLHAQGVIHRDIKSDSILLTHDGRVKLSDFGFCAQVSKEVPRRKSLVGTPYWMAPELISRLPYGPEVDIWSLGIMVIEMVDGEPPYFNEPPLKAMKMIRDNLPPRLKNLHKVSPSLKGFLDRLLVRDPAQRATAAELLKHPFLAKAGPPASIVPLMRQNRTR
Chain of CDK5/p25 (Q00535 whole entry, species assumed): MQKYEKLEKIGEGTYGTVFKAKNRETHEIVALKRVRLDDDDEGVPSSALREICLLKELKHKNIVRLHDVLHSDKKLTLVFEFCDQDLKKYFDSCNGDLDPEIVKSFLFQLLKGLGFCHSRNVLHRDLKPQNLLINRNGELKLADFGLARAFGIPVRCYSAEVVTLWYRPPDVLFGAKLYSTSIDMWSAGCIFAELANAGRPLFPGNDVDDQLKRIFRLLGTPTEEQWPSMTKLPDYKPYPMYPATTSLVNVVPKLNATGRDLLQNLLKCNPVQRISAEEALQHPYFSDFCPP
Chain of CDK5/p25 (Q15078 99-307 partner limits assumed, species assumed): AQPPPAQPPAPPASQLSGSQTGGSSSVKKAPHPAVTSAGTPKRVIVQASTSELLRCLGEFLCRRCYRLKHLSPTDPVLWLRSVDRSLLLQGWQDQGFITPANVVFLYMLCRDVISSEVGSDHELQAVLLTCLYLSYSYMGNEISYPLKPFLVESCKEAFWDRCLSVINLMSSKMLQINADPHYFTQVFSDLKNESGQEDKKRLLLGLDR
Chain of GSK3α (P49840 whole entry, species assumed): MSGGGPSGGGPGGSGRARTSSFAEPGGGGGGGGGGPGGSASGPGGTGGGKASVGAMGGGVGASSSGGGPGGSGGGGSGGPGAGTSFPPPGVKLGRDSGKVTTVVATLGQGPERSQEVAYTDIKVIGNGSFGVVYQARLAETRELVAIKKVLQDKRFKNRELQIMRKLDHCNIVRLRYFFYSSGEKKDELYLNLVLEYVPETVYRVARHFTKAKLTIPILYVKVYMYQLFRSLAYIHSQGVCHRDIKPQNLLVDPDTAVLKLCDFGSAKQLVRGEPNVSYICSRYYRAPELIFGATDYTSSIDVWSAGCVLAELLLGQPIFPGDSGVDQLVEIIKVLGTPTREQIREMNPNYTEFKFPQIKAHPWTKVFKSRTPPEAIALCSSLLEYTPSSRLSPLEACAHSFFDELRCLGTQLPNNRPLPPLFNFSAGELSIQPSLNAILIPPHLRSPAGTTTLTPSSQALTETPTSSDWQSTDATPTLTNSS
Chain of CHK1 (O14757 whole entry, species assumed): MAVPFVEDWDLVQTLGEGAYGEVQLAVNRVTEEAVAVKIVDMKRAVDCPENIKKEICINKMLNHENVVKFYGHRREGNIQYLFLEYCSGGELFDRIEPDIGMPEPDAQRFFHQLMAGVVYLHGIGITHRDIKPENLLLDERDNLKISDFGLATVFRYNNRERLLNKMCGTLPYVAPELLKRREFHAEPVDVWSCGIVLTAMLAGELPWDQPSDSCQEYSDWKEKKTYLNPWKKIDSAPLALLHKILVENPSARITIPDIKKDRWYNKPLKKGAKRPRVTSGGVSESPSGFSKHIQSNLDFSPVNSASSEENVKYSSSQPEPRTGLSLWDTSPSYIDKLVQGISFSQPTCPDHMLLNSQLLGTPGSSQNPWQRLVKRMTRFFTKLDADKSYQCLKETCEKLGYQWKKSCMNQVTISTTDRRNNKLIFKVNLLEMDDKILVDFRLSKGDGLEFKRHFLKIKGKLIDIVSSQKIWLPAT

For `NCCC(=O)Nc1ccc(-n2nc(C(F)(F)F)cc2-c2ccc3ccc4ccccc4c3c2)cc1` [Compound 4, 3-amino-N-(4-(5-(phenanthren-3-yl)-3-(trifluoromethyl)-1H-pyrazol-1-yl)phenyl)-propanamide], the remaining activity at 5 µM in assay [1] (5 μM compound, average of triplicate) stood at 76%. In addition, the “% activity vs. DMSO, PAK4” value in assay [2] turned out to be 101%. For the same compound, in assay [3], the “% activity vs. DMSO, CDK5/p25” value is 113%. For the same compound, in assay [4], the “% activity vs. DMSO, PKA” value is listed as 110%. In assay [5], the “Migration of BCPAP cells” value is recorded as “inhibited migration”. Besides, in assay [6], the “% activity vs. DMSO, JAK2” value stood at 152%. Also, in assay [7], the “Inhibition of PAK1 kinase activity in initial screen” value is “inhibited PAK1 kinase activity”, the “ATP competition for PAK1” value was “competed with ATP binding to PAK1”, the “Relative PAK1 inhibitory potency (comparison in words)” value is reported as “comparable PAK1 inhibitory activity to OSU-03012; also recorded: more potent than the other compounds” and the IC50 was no more than 5 µM. Also, the “% activity vs. DMSO, PAK2” value in [8] was 70%. In [9], the “% activity vs. DMSO, Src(T341M)” value is on record as 105%. Also, in assay [10], the “% activity vs. DMSO, CHK1” value is given as 82%. Further, the “% activity vs. DMSO, GSK3β” value in assay [11] was found to be 170%. Further, the “% activity vs. DMSO, GSK3α” value in assay [12] is on record as 133%.

Take `CC(C)NC(=O)c1cc(-c2ccc3ccc4ccccc4c3c2)n(-c2ccc(NC(=O)CN)cc2)n1` [Compound 15, 1-(4-(2-Aminoacetamido)phenyl)-N-isopropyl-5-(phenanthren-3-yl)-1H-pyrazole-3-carboxamide]: the remaining activity at 5 µM in assay [1] turned out to be 84%. The “% activity vs. DMSO, PAK4” value in assay [2] was found to be 105%. In [3], the “% activity vs. DMSO, CDK5/p25” value is 93%. Further, in [4], the “% activity vs. DMSO, PKA” value is recorded as 119%. Moreover, the “Migration of BCPAP cells” value in assay [5] is “inhibited migration”. Moreover, in assay [6], the “% activity vs. DMSO, JAK2” value is reported as 139%. Besides, in assay [7], the “Inhibition of PAK1 kinase activity in initial screen” value is “inhibited PAK1 kinase activity”, the “ATP competition for PAK1” value is “competed with ATP binding to PAK1”, the “Relative PAK1 inhibitory potency (comparison in words)” value is listed as “relative enhancement in activity; also recorded: comparable PAK1 inhibitory activity to OSU-03012; also recorded: more potent than the other compounds” and the IC50 is no more than 5 µM. Besides, in assay [8], the “% activity vs. DMSO, PAK2” value turned out to be 81%. Also, the “% activity vs. DMSO, Src(T341M)” value in [9] stood at 94%. The “% activity vs. DMSO, CHK1” value in [10] amounted to 89%. In addition, the “% activity vs. DMSO, GSK3β” value in assay [11] stood at 137%. Moreover, the “% activity vs. DMSO, GSK3α” value in assay [12] was 118%.

The values are drawn from patent publication US9156790B2, “Anticancer P21-activated kinase inhibitors” (Ohio State Innovation Foundation, priority 2013, dated 2015).
